Activity calls are given as the source filed them. The calls are words filed in the database; no cut-off is given here.
Tests used:
[1] = Toxicity in Kunming mouse tail bleeding model assessed as blood loss at 73.01 mg/kg, sc measured after 1 hr by UV-vis spectrophotometry; type: organism-based; details: in vivo
Mus musculus [2] = experiment: Anticoagulation activity in Kunming mouse assessed as APTT-prolonging effect by measuring time for maximum effect at 15.3 mg/kg, sc measured after 0.5 to 8 hrs by APTT reagent based assay; type: functional; details: time 0.5-8 hrs
Plasma [3] = experiment: Anticoagulation activity in human plasma assessed as drug level causing 20 times doubling of APTT preincubated for 2 mins followed by APTT reagent and measured after 3 mins by coagulometric method; type: functional; details: time 5 min
[4] = biological target: Coagulation factor XI (Homo sapiens) (UniProt P03951); experiment: Inhibition of factor 11a (unknown origin) at IC90 using S-2366 as substrate preincubated for 1 min followed by chromogenic substrate addition and measured for 2 mins in presence of AT-III; details: time 3.0 min
[5] = biological target: Prothrombin (Homo sapiens) (UniProt P00734); experiment: Inhibition of factor 2a (unknown origin) at IC50 preincubated for 1 min followed by chromogenic substrate addition and measured for 2 mins in presence of AT-III; details: time 3.0 min
[6] = biological target: Prothrombin (Homo sapiens) (UniProt P00734); experiment: Inhibition of factor 2a (unknown origin) at IC90 preincubated for 1 min followed by chromogenic substrate addition and measured for 2 mins in presence of AT-III; details: time 3.0 min
Plasma [7] = experiment: Induction of platelet aggregation in human platelet rich plasma at plasma peak concentration of 10 times anti-thrombosis ED50 measured after 10 mins by light transmission aggregometry
[8] = Half life in Kunming mouse at 15.3 mg/kg, sc; type: ADME, organism-based; details: in vivo
[9] = MRT (0 to infinity) in Kunming mouse at 1.7 mg/kg, sc; type: ADME, organism-based; details: in vivo
[10] = MRT (0 to 8 hrs) in Kunming mouse at 15.3 mg/kg, sc; type: ADME, organism-based; details: in vivo
[11] = biological target: T1, Coagulation factor VII (Homo sapiens) (UniProt P08709); experiment: Inhibition of factor 7a (unknown origin) at IC50 using pefachrome factor VIIa as substrate preincubated for 1 min followed by chromogenic substrate addition and measured for 2 mins in presence of AT-III; details: time 3.0 min
T1 sequence (whole entry): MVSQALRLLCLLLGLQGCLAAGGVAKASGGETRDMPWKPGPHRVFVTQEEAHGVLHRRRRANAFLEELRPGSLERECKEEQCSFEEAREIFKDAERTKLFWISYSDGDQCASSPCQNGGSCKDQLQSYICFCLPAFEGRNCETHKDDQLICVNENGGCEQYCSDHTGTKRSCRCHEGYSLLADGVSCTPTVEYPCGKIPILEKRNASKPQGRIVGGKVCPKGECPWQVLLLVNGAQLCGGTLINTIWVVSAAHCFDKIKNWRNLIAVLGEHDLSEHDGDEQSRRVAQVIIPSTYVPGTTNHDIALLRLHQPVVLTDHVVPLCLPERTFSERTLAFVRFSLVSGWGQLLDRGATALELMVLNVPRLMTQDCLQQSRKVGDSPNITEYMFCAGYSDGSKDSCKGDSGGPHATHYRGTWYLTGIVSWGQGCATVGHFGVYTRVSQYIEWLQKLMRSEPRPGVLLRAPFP

[12] = MRT (0 to 8 hrs) in Kunming mouse at 1.7 mg/kg, sc; type: ADME, organism-based; details: in vivo
[13] = biological target: T1, Coagulation factor VII (Homo sapiens); experiment: Inhibition of factor 7a (unknown origin) at IC50 using pefachrome factor VIIa as substrate preincubated for 1 min followed by chromogenic substrate addition and measured for 2 mins; details: time 3.0 min
[14] = Half life in Kunming mouse at 1.7 mg/kg, sc; type: ADME, organism-based; details: in vivo
[15] = MRT (0 to infinity) in Kunming mouse at 15.3 mg/kg, sc; type: ADME, organism-based; details: in vivo
[16] = biological target: Coagulation factor X (Homo sapiens) (UniProt P00742); experiment: Inhibition of factor 10a (unknown origin) at IC50 preincubated for 1 min followed by chromogenic substrate addition and measured for 2 mins; details: time 3.0 min
[17] = MRT (0 to infinity) in Kunming mouse at 5.11 mg/kg, sc; type: ADME, organism-based; details: in vivo
Mus musculus [18] = experiment: Anticoagulation activity in Kunming mouse assessed as APTT-prolonging effect by measuring time for maximum effect at 5.11 mg/kg, sc measured after 0.5 to 8 hrs by APTT reagent based assay; type: functional; details: time 0.5-8 hrs
[19] = biological target: Coagulation factor X (Homo sapiens) (UniProt P00742); experiment: Inhibition of factor 10a (unknown origin) at IC90 preincubated for 1 min followed by chromogenic substrate addition and measured for 2 mins in presence of AT-III relative to control; details: time 3.0 min
Mus musculus [20] = experiment: Anticoagulation activity in Kunming mouse assessed as APTT-prolonging effect by measuring time for maximum effect at 1.7 mg/kg, sc measured after 0.5 to 8 hrs by APTT reagent based assay; type: functional; details: time 0.5-8 hrs
[21] = biological target: Coagulation factor X (Homo sapiens) (UniProt P00742); experiment: Inhibition of factor 10a (unknown origin) at IC50 preincubated for 1 min followed by chromogenic substrate addition and measured for 2 mins in presence of AT-III; details: time 3.0 min
Plasma [22] = experiment: Anticoagulation activity in HCII-deficient human plasma preincubated for 2 mins followed by APTT reagent and measured after 3 mins by coagulometric method; type: functional, cell-free; details: time 5.0 min
[23] = biological target: Coagulation factor XI (Homo sapiens) (UniProt P03951); experiment: Inhibition of factor 11a (unknown origin) at IC50 using S-2366 as substrate preincubated for 1 min followed by chromogenic substrate addition and measured for 2 mins; details: time 3.0 min
Plasma [24] = experiment: Anticoagulation activity in AT-III-deficient human plasma preincubated for 2 mins followed by APTT reagent and measured after 3 mins by coagulometric method; type: functional, cell-free; details: time 5.0 min
[25] = Tmax in Kunming mouse at 15.3 mg/kg, sc; type: ADME, organism-based; details: in vivo
[26] = biological target: Prothrombin (Homo sapiens) (UniProt P00734); experiment: Inhibition of factor 2a (unknown origin) at IC50 preincubated for 1 min followed by chromogenic substrate addition and measured for 2 mins; details: time 3.0 min
[27] = biological target: Coagulation factor XI (Homo sapiens) (UniProt P03951); experiment: Inhibition of factor 11a (unknown origin) at IC50 using S-2366 as substrate preincubated for 1 min followed by chromogenic substrate addition and measured for 2 mins in presence of AT-III; details: time 3.0 min
[28] = Tmax in Kunming mouse at 1.7 mg/kg, sc; type: ADME, organism-based; details: in vivo

Sequence of Coagulation factor X (Homo sapiens) (P00742 41-179 limits assumed): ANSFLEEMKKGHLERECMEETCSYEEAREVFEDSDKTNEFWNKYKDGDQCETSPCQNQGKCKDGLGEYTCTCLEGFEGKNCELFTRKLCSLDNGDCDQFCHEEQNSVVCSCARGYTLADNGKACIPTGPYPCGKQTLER
Sequence of Coagulation factor X (Homo sapiens) (P00742 235-488 limits assumed): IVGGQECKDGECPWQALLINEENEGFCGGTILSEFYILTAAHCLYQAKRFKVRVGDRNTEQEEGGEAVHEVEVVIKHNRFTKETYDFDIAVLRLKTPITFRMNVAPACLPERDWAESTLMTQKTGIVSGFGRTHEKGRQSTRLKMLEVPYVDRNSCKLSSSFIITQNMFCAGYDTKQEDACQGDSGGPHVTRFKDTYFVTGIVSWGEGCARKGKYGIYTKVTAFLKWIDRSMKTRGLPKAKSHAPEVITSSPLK
Sequence of Coagulation factor XI (Homo sapiens) (P03951 19-387 limits assumed): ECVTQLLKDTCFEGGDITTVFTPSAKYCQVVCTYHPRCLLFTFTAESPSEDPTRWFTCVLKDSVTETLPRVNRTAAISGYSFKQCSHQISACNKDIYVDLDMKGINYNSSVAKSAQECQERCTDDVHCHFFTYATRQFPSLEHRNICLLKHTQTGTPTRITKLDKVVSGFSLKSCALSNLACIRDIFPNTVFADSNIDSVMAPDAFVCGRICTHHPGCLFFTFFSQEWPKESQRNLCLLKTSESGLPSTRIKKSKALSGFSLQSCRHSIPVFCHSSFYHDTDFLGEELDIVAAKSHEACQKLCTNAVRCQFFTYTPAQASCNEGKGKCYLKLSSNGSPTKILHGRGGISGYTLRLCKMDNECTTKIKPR
Sequence of Coagulation factor XI (Homo sapiens) (P03951 388-625 limits assumed): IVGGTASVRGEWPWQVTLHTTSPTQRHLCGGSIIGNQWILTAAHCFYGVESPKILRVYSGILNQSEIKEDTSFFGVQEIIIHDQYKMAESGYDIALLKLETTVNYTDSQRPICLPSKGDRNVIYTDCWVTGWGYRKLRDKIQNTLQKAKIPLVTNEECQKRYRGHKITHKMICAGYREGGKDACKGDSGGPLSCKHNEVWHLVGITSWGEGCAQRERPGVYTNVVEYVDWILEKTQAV

CC(=O)N[C@H]1[C@H](O[C@H]2[C@H](O[C@@H]3O[C@@H](C)[C@@H](OS(=O)(=O)[O-])[C@@H](O)[C@@H]3OS(=O)(=O)O)[C@@H](O)[C@H](O[C@H]3[C@@H](NC(C)=O)[C@H](O[C@H]4[C@H](O[C@@H]5O[C@@H](C)[C@@H](OS(=O)(=O)[O-])[C@@H](O)[C@@H]5OS(=O)(=O)O)[C@@H](O)[C@H](O[C@H]5[C@@H](NC(C)=O)[C@H](O[C@H]6[C@H](O[C@@H]7O[C@@H](C)[C@@H](OS(=O)(=O)[O-])[C@@H](O)[C@@H]7OS(=O)(=O)O)[C@@H](O)[C@H](O[C@H]7[C@@H](NC(C)=O)[C@H](O[C@H]8[C@H](O[C@@H]9O[C@@H](C)[C@@H](OS(=O)(=O)[O-])[C@@H](O)[C@@H]9OS(=O)(=O)O)[C@@H](O)[C@H](O[C@H]9[C@@H](NC(C)=O)[C@H](O[C@@H]([C@H](O[C@@H]%10O[C@@H](C)[C@@H](OS(=O)(=O)[O-])[C@@H](O)[C@@H]%10OS(=O)(=O)O)[C@@H](O)CO)[C@H](O)C(=O)[O-])O[C@H](COS(=O)(=O)[O-])[C@@H]9OS(=O)(=O)[O-])O[C@@H]8C(=O)[O-])O[C@H](COS(=O)(=O)[O-])[C@@H]7OS(=O)(=O)[O-])O[C@@H]6C(=O)[O-])O[C@H](COS(=O)(=O)[O-])[C@@H]5OS(=O)(=O)[O-])O[C@@H]4C(=O)[O-])O[C@H](COS(=O)(=O)[O-])[C@@H]3OS(=O)(=O)[O-])O[C@@H]2C(=O)[O-])O[C@H](COS(=O)(=O)[O-])[C@H](OS(=O)(=O)[O-])[C@@H]1O[C@@H]1OC(C(=O)[O-])=C[C@H](O[C@@H]2O[C@@H](C)[C@@H](OS(=O)(=O)[O-])[C@@H](O)[C@@H]2OS(=O)(=O)O)[C@H]1O.[Na+].[Na+].[Na+].[Na+].[Na+].[Na+].[Na+].[Na+].[Na+].[Na+].[Na+].[Na+].[Na+].[Na+].[Na+].[Na+].[Na+].[Na+].[Na+].[Na+].[Na+].[Na+] gave an Activity [1] of 139 µL, an Emax (Mus musculus [2]) of 20.2 s and an EC (Plasma [3]) of 1.79 µM. The inhibition [4] was “Active”, the inhibition [5] was “inactive” and the inhibition [6] was “Active”. For the same compound, the Activity (Plasma [7]) was “Not Active”, the half-life [8] was 0.564 h and the MRT inf [9] was 2.21 h. The MRT last [10] was 1.66 h, the inhibition [11] was “inactive” and the MRT last [12] was 1.99 h. The “inhibition (active/not active)” value [13] was “inactive”, the half-life [14] was 1.09 h and the MRT inf [15] was 1.71 h. For the same compound, the inhibition [16] was “inactive”, the MRT inf [17] was 1.52 h and the Emax (Mus musculus [18]) was 7.68 s. For the same compound, the inhibition [19] was “inactive”, the Emax (Mus musculus [20]) was 4.39 s and the inhibition [21] was “inactive”. The Activity (Plasma [22]) was “Active”, the inhibition [23] was “inactive” and the Activity (Plasma [24]) was “Active”. The Tmax [25] was 0.75 h, the inhibition [26] was “inactive” and the inhibition [27] was “inactive”. The Tmax [28] was 1.17 h.
